Source: US7109333B2, “Heterocyclic compounds” (SmithKline Beecham Corporation, priority 1998, dated 2006)
Where a name gives a salt, the structure may show the parent alone.

How the values were obtained:
[1] = tested on: N87 gastric tumor cell line; experiment: Methylene blue growth inhibition assay, N87; assay type: cell-based; conditions: Homo sapiens, 72 h; N87, 3 days; read-out: Cell Proliferation N87, IC50
Experimental: (§1) Human breast (BT474), head and neck (HN5) and gastric tumor (N87) cell lines were cultured in low glucose DMEM (Life Technologies 12320–032) containing 10% fetal bovine serum (FBS) at 37° C. in a humidified 10% CO2, 90% air incubator. The SV40 transformed human mammary epithelial cell line HB4a was transfected with either human H-ras cDNA (HB4a r4.2) or the human c-erbB2 cDNA (HB4a c5.2). The HB4a clones were cultured in RPMI containing 10% FBS, insulin (5 μg/ml), hydrocortisone (5 μg/ml), supplemented with the selection agent hygromycin B (50 μg/ml). Cells were harvested using trypsin/EDTA, counted using a haemocytometer, and plated in […] of the appropriate media, at the following densities, in a 96-well tissue culture plate (Falcon 3075): BT474 10,000 cells/well, HN5 3,000 cells/well, N87 10,000 cells/well, HB4a c5.2 3,000 cells/well, HB4a r4.2 3,000 cells/well. The next day, compounds were diluted in DMEM containing […] gentamicin, at twice the final required concentration, from 10 mM stock solutions in DMSO. […] of these dilutions were added to the […] of media currently on the cell plates. Medium containing 0.6% DMSO was added to control wells. Compounds diluted in DMEM were added to all cell lines, including the HB4a r4.2 and HB4a c5.2 cell lines. The final concentration of DMSO in all wells was 0.3%. Cells were incubated at 37° C., 10% CO2 for 3 days. Medium was removed by aspiration. Cell biomass was estimated by staining cells with 100 μl per well methylene blue (Sigma M9140, 0.5% in 50:50 ethanol:water), and incubation at room temperature for at least 30 minutes. Stain was removed, and the plates rinsed under a gentle stream of water, and air-dried. To release stain from the cells 100 μl of solubilization solution was added (1% N-lauroyl sarcosine, Sodium salt, Sigma L5125, in PBS), and plates were shaken gently for about 30 minutes. Optical density at 620 nm was measured on a microplate reader. Percent inhibition of cell growth was calculated relative to vehicle treated control wells. Concentration of compound that inhibits 50% of cell growth (IC50) was interpolated using nonlinear regression (Levenberg-Marquardt) and the equation, y=Vmax*(1−(x/(K+x)))+Y2, where “K” was equal to the IC50.

[2] = tested on: HB4a c5.2 (HB4a transfected with human c-erbB2 cDNA); experiment: Methylene blue growth inhibition assay, HB4a erbB2; assay type: cell-based; conditions: 72 h, HB4a c5.2, 3 days, read-out: Cell Proliferation HB4a erbB2, IC50
Experimental: as §1

[3] = tested on: BT474 breast tumor cell line; experiment: Methylene blue growth inhibition assay, BT474; assay type: cell-based; conditions: Homo sapiens, BT-474, 72 h; BT474, 3 days; read-out: Cell Proliferation BT474, IC50
Experimental: as §1

[4] = tested on: HN5 head and neck tumor cell line; experiment: Methylene blue growth inhibition assay, HN5; assay type: cell-based; conditions: Homo sapiens, 72 h; HN5, 3 days; read-out: Cell Proliferation HN5, IC50
Experimental: as §1

c-erbB-2 = target: T1, c-erbB-2 (Homo sapiens, UniProt P04626); experiment: Substrate phosphorylation assay, erbB2, assay (b) (SPA, 33P-ATP); assay type: biochemical; conditions: Tables 1A and 1B
T1 construct: baculovirus expressed, recombinant constructs of the intracellular domains of c-erbB-2 and c-erbB-4; made in house
Text: (§2) The substrate phosphorylation assays use baculovirus expressed, recombinant constructs of the intracellular domains of c-erbB-2 and c-erbB-4 that are constitutively active and EGFr isolated from solubilised A431 cell membranes. The method measures the ability of the isolated enzymes to catalyse the transfer of the g-phosphate from ATP onto tyrosine residues in a biotinylated synthetic peptide (Biotin-[…]. Substrate phosphorylation was detected following either of the following two procedures: a.) c-ErbB-2, c-ErbB4 or EGFr were incubated for 30 minutes, at room temperature, with 10 mM MnCl2, 10 mM ATP, 5 mM peptide, and test compound (diluted from a 5 mM stock in DMSO, final DMSO concentration is 2%) in 40 mM HEPES buffer, pH 7.4. The reaction was stopped by the addition of EDTA (final concentration 0.15 mM) and a sample was transferred to a streptavidin-coated 96-well plate. The plate was washed and the level of phosphotyrosine on the peptide was determined using a Europium-labelled antiphosphotyrosine antibody and quantified with a time-resolved fluorescence technique. b.) ErbB2 was incubated for 50 minutes at room temperature with 15 mM MnCl2, 2 mM ATP, 0.25 mCi [γ-^33P] ATP/well, 5 mM peptide substrate, and test compound (diluted from a 10 mM stock in DMSO, final DMSO concentration is 2%) in 50 mM MOPS pH 7.2. The reaction was terminated by the addition of […] of PBS containing 2.5 mg/ml streptavidin-coated SPA beads (Amersham Inc.), 50 mM ATP, 10 mM EDTA and 0.1% TX-100. The microtitre plates were sealed and SPA beads were allowed to settle for at least six hours. The SPA signal was measured using a Packard Topcount 96-well plate scintillation counter (Packard Instrument Co., Meriden, Conn.).

[5] = target: T2, EGFr isolated from solubilised A431 cell membranes (Homo sapiens, UniProt P00533); experiment: Substrate phosphorylation assay, EGF-r, assay (a) (time-resolved fluorescence); assay type: biochemical
T2 construct: EGFr isolated from solubilised A431 cell membranes; endogenous in cells; host or cells: A431 cell membranes (solubilised)
Text: as §2

[6] = tested on: HB4a r4.2 (HB4a transfected with human H-ras cDNA); experiment: Methylene blue growth inhibition assay, HB4a ras; assay type: cell-based; conditions: 72 h, HB4a r4.2, 3 days, read-out: Cell Proliferation HB4a ras, IC50
Experimental: as §1

[7] = Major metabolites: liver S-9 homogenate incubation, LC-MS metabolite identification; assay type: in vitro ADME, Sprague Dawley rat and human; conditions: liver S-9 (rat, human), 10 μM, 60 min, 37° C.
Experimental: Liver S-9 homogenates (5 mg/mL protein concentration) from prepared pooled male Sprague Dawley rat livers and pooled human livers (XenoTech, LLC, Kansas City, Kans.) were incubated in 96-well polypropylene plates with representative examples selected from examples 1 to 40 (10 μM) in a total volume of 0.5 mL. Stock solutions of these compounds were prepared in DMSO at a concentration of 1 mM to maintain a <1% final DMSO concentration for each reaction. Enzymatic incubations contained cofactors (5.71 mM NADPH, 7.14 mM glucose-6-phosphate, 7.14 mM UDPGA, 47.1 mM potassium chloride, and 11.4 mM magnesium chloride in 0.1 M potassium phosphate buffer, pH 7.4). Control samples were aspirated from the reaction samples at time zero and placed immediately into 2 volumes of ice-chilled acetonitrile. Sample reaction plates were incubated for 60 min in a shaker incubator maintained at 37° C. supplied with O2. Reactions were terminated by addition of 2 volumes of ice-chilled acetonitrile. All samples were vortexed and centrifuged at 2000×g for 10 min. The supernatant was removed and analyzed by LC-MS. The metabolite identification work was done by using reversed-phase HPLC coupled with ion-trap mass spectroscopy.

T1 sequence (P04626 676-1255 limits assumed): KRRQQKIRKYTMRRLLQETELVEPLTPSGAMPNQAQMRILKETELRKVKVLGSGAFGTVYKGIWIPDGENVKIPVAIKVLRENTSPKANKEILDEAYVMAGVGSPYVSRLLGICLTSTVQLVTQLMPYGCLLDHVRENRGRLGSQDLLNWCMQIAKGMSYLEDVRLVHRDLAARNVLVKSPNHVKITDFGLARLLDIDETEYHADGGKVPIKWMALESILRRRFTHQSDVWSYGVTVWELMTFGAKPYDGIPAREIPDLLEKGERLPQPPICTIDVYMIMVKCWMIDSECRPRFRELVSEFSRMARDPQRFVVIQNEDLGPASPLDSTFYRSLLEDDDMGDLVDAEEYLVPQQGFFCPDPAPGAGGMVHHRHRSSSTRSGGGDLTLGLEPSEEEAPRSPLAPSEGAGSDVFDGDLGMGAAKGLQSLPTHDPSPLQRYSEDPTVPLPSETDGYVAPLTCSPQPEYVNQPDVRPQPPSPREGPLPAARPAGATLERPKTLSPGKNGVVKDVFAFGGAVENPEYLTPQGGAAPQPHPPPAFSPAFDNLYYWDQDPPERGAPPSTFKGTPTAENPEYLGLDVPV
T2 sequence (P00533 25-1210): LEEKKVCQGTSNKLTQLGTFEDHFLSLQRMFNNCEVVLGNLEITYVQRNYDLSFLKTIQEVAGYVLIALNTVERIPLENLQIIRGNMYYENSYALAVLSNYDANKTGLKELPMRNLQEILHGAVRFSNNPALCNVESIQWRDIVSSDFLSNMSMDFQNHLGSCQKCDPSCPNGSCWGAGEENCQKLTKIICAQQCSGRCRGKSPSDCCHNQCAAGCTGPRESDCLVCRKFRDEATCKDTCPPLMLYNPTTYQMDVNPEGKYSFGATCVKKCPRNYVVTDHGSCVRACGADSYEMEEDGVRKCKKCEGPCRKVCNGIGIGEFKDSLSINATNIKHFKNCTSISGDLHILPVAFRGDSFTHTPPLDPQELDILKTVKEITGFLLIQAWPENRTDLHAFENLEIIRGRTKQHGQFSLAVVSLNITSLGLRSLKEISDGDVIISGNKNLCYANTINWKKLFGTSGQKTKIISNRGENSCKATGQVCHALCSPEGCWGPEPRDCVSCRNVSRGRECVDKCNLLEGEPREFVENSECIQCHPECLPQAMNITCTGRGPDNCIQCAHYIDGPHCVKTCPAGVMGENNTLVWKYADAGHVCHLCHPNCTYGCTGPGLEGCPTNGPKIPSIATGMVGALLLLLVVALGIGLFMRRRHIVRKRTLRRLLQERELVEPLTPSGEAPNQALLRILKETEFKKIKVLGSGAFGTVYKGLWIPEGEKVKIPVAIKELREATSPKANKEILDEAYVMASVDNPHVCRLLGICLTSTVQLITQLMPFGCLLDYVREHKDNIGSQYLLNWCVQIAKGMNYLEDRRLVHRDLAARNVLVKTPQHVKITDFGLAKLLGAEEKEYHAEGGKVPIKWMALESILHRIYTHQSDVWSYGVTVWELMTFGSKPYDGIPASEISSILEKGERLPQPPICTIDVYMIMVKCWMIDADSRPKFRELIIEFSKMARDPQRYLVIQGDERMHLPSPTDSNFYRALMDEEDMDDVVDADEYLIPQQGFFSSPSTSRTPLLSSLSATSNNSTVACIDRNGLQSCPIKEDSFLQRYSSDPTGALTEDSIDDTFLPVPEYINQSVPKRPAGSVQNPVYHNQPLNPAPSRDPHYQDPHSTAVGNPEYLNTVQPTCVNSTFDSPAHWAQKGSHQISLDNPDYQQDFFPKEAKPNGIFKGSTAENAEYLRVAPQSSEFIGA

SMILES	IC50 [1] [µM]	IC50 [2] [µM]	IC50 [3] [µM]	IC50 [4] [µM]	IC50 (c-erbB-2) [µM]	IC50 [5] [µM]	IC50 [6] [µM]	identified as a major metabolite of N-[4-(benzyloxy)phenyl]-6-[4-({[2-(methanesulphonyl)ethyl]amino}methyl)-2-furyl]-4-quinazolinamine (Example 11) [7]
CS(=O)(=O)CCNCc1ccc(-c2cc3c(Nc4ccc(S(=O)(=O)c5ccccc5)cc4)ncnc3cn2)o1 [Example 3, (4-Benzenesulphonyl-phenyl)-(6-(5-((2-methanesulphonyl-ethylamino)-methyl)-furan-2-yl)-pyrido[3,4-d]pyrimidin-4-yl)-amine dihydrochloride]	< 5	< 5	< 5	< 5	< 0.1	< 0.1	25 to 50	–
CS(=O)(=O)CCNCc1cccc(-c2cc3c(Nc4ccc(OCc5ccccc5)cc4)ncnc3cn2)c1 [Example 4, (4-Benzyloxy-phenyl)-(6-(3-((2-methanesulphonyl-ethylamino)-methyl)-phenyl)-pyrido[3,4-d]pyrimidin-4-yl)-amine dihydrochloride]	< 5	< 5	< 5	< 5	0.1 to 1	< 0.1	> 50	–
CS(=O)(=O)CCNCc1ccc(-c2ccc3ncnc(Nc4ccc(OCc5ccccc5)cc4)c3c2)o1 [Example 5, (4-Benzyloxyphenyl)-(6-(5-((2-methanesulphonyl-ethylamino)-methyl)-furan-2-yl)-quinazolin-4-yl)-amine dihydrochloride]	< 5	< 5	< 5	< 5	< 0.1	< 0.1	> 50	–
CS(=O)(=O)CCNCc1nc(-c2ccc3ncnc(Nc4ccc(OCc5ccccc5)cc4)c3c2)cs1 [Example 7, (4-Benzyloxy-phenyl)-(6-(2-((2-methanesulphonyl-ethylamino)-methyl)-thiazol-4-yl)-quinazolin-4-yl)-amine dihydrochloride]	< 5	< 5	< 5	< 5	< 0.1	< 0.1	5 to 25	–
NCc1coc(-c2ccc3ncnc(Nc4ccc(OCc5ccccc5)cc4)c3c2)c1 [N-[4-(Benzyloxy)phenyl]-6-[4-(aminomethyl)-2-furyl]-4-quinazolinamine]	–	–	–	–	–	–	–	identified as a major metabolite
